The values below come from patent US9376406B2, “uPAR-uPA interaction inhibitors and methods for treating cancer” (Indiana University Research and Technology Corporation, priority 2011, dated 2016).

The target of assay [1] is T1, uPAR (Homo sapiens, UniProt Q03405).
T1 construct: uPAR comprising amino acids 1-277 was expressed in Drosophila S2 cells; made in house; host or cells: Drosophila S2 cells
Kind of assay: Fluorescence polarization assay, displacement of GFD-FAM. The following applies: displacement of GFD-FAM from uPAR. Format: binding. On the procedure:
Fluorescence Polarization Assay. […] Polarized fluorescence intensities were measured immediately following addition of inhibitors to the protein-peptide mix at room temperature on an EnVision® Multilabel Plate Readers (PerkinElmer) with excitation and emission wavelengths of 485 and 530 nm, respectively.
Fluorescence Polarization Screening to Identify Hit Compounds. To identify compounds that bind to uPAR at the GFD binding site, a fluorescent polarization assay is conceived with a probe that consists of labeling GFD with fluorescein at its N-terminus (GFD-FAM). […] Using this assay, all compounds that emerge from the computational screening are tested initially at a single concentration of 50 μM. The compounds showing the highest reduction in polarization are subjected to activity confirmation.

Assay [2] has as its target T1, uPAR. Kind of assay: Fluorescence polarization, direct binding to uPAR. As to the method:
Fluorescence polarization in the presence and absence of protein and were measured using identical conditions as described above.
The mP was evaluated in the a presence and absence of competing 10 μM GFD.
Background: Polarisation of emitted light reports the rotation of a fluorescent probe.

Assay [3] relates to MDA-MB-231 cells. Kind of assay: Wound healing assay. Format: cell-based. The conditions noted are these: Homo sapiens; MDA-MB-231, wound healing; read-out: migration IC50. On the procedure: Wound Healing Assay. Confluent cell monolayers in 12-well plates were wounded by scraping with a micropipette tip. The cells were washed and then cultured in complete media containing the compounds. The degree of wound closure was assessed in three randomly chosen regions by measuring the distance between the wound edges just after wounding and after 16 h under Nikon Diaphot 300 microscope.
Without being bound by theory, it is believed that, to invade neighboring tissue, cells must acquire additional motility, although invasion and migration may proceed through different mechanisms. […] The first uses the Boyden chamber apparatus to assess the effect of compound on migration primarily mediated by chemotaxis. […] The other approach to test for effects on migration was the wound healing assay, which probes migration mediated by a concentration gradient established by the wound. It is also not as sensitive to potential cytotoxic effects.

Assay [4] relates to MDA-MB-231 cells. Kind of assay: Invasion assay (Matrigel invasion chamber). Format: cell-based, human. On the procedure:
(§1) Invasion Assay. Invasion assays are performed using the Biocoat Matrigel invasion chamber (BD Biosciences, Bedford, Mass.) according to the manufacturer's protocol. The undersurface of the inserts were coated with 30 ng/μl of fibronectin at 4° C. overnight. The filters were equilibrated with 0.5 ml serum-free medium for 2 h. After 4 h of serum starvation, cells were harvested and 5×10^4 cells/500 μl were plated onto the upper chamber of a Transwell filter in medium containing 0.1% FBS and the indicated compounds. 500 μl of 10% FBS medium containing the same amount of compounds or DMSO control were added to the lower chamber. After a 24 h incubation at 37° C. in 5% CO2, the filters were fixed and the number of cells that had invaded was determined as described for the migration assay.
(§2) Testing of the effects of IPR-465 on processes critical for metastasis in cell culture, starting with invasion, was undertaken. A Boyden chamber apparatus was used and results are shown in FIG. 3(a), where the bar groups correspond, from left to right, to H1299 invasion, H1299 cytotoxicity, MDA-MB-231 invasion, MDA-MB-231 cytotoxicity, and in FIG. 3(b), where the bar groups correspond, from left to right, to H1299 Boyden Chamber, H1299 wound healing, H1299 cytotoxicity, MDA-MB-231 Boyden Chamber, MDA-MB-231 wound healing, MDA-MB-231 cytotoxicity.
(§3) Ten fields of unit area on each membrane were counted for cell numbers (magnification, 200×). […] The effect of the compound appears to be more pronounced in MDA-MB-231 cells compared with H1299. The level of toxicity of the compounds is measured at each concentration within the timescale of the invasion experiment to ensure that the observed effects are not due to cytotoxicity (FIG. 3(a)).
(§4) MDA-MB-231 cells were transfected with siRNAs for uPAR, control siRNA (control) or with transfection reagent only (mock). After 48 h, cells were lysed and analysed by immunoblotting.

In another assay the test system is H1299 cells. Kind of assay: Invasion assay (Matrigel invasion chamber). Format: cell-based, human. On the procedure: as §1, §2, §3, §4

T1 sequence (Q03405 23-299): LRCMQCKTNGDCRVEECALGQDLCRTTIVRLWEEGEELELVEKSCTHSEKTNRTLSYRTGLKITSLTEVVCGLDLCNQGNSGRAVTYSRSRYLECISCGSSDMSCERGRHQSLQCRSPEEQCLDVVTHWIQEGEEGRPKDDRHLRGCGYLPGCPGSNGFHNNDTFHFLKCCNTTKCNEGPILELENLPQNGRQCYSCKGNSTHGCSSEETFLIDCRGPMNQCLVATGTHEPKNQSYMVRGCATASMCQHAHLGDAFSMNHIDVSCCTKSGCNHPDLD

Turning to `CC1CC(C)CN(c2cc(Nc3ccccc3C(=O)O)c3c4c(onc24)-c2ccccc2C3=O)C1` (centres unmarked) [IPR-456], on uPAR [1], the affinity, expressed as Ki, was 4 µM. Moreover, the equilibrium dissociation constant (Kd) (in general, a measure of binding affinity in units of concentration) at uPAR [2] (direct binding to uPAR by fluorescence polarization) was determined as 0.312 µM. Besides, the “fluorescence polarization (mP) with increasing uPAR concentration” value on uPAR [2] (excitation 530 nm, emission 600 nm) is on record as “showed a dose response with increasing mP”. Further, the “change in polarization with increasing uPAR” value on uPAR [2] (in the presence of 10 μM competing GFD) is “no change in the polarization was detected”. The IC50 with MDA-MB-231 cells [3] was around 150 µM; in the assay on MDA-MB-231 cells [4] (Homo sapiens, MDA-MB-231), around 50 µM; in the assay on H1299 cells (Homo sapiens, NCI-H1299), around 50 µM. Besides, the “number of cells able to invade through the membrane” value in the assay on MDA-MB-231 cells [4] (MDA-MB-231) and in the assay on H1299 cells (H1299) was “dose-dependent reduction” throughout. Further, the influence on invasion result in the assay with MDA-MB-231 cells [4] (MDA-MB-231 with siRNA knockdown of uPAR) and in the assay on H1299 cells (H1299 with siRNA knockdown of uPAR) was “no additional influence on invasion” throughout.
